In this assay the target is hOGG1 (Homo sapiens, UniProt O15527). The assay can be described thus: Biochemical fluorescence assay to measure enzymatic activity of hOGG1 (OGG1/APEX IC50). The note with it: 1 nM OGG1+2 nM APEX+6 nM dsDNA (8-oxo-dG substrate); pH 7.5; RT 40 min; read-out: OGG1/APEX IC50. Further details: Protein His-hOGG1 (12-323) was prepared; His (N); host or cells: E. coli. On the procedure: Biological Example 1: Biochemical Assay to Measure Enzymatic Activity of hOGG1 (OGG1/APEX IC50)
The reported fluorescence-based assay (Donley et al ACS Chem Biol 2015; 10 (10), 2334-2343) was modified to include hAPE1/APEX1 protein. The oligonucleotide substrate with 8-oxo-dG lesion at X was prepared (LGC Biosearch, Petaluma, CA):
Protein His-hOGG1 (12-323) was prepared by Chempartner Corporation via E. coliexpression and purification by Ni-NTA and S200 column to afford 95% purity by SDS-PAGE and SEC-HPLC analysis and hAPE1/APEX1 was purchased (SinoBiological). The assay was run in 384-well plates following the general procedure: (1) compound dilution; (2) addition of hOGG1/APEX1 to compound wells; (3) addition of DNA substrate to compound wells; (4) read Ex520/Em600 (TAMRA) fluorescence signal after 40 minutes; (5) calculate % inhibition/compound concentration; (6) calculate dose-response curve and IC50 value.
• (1) 20 mM of compound solution was prepared in DMSO; • (2) Compounds were diluted to 10 mM in DMSO in ECHO Source plate (Labcyte PP-0200), by mixing […] DMSO; • (3) 4× dilution of compounds, for 10 points, by mixing […] DMSO; and • (4) Dispensed 150 nL compounds to assay plate (Corning 3573) in column 3-22. Dispensed 150 nL DMSO to Min and Max control wells in column 1-2 and column 23-24.
• (1) Assay buffer was prepared (20 mM Tris pH 7.5, 100 mM KCl, 0.1% BSA, 0.01% Tween). • (2) […] buffer was added to Min control wells (Column 1-2). • (3) Enzyme was diluted to 2× with buffer (2 nM OGG1+4 nM APEX1). Dispensed […] (except Min control wells). Shake at 500 rpm at RT for 20 min. • (4) DNA substrate diluted to 2× with buffer (12 nM). Dispensed […]. Final concentration: 1 nM OGG1+2 nM APEX+6 nM dsDNA. Shake at RT for 40 min. • (5) Ex520/Em600 (TAMRA) was read.
• (1) Calculated respective mean of Max and Min control wells. • (2) Converted data to percentage inhibition.
Inhibition (%)=(Max mean−value)/(Max mean−Min mean)×100% • (3) Calculated sigmoidal curve (3-parameter) and IC50 (using GraphPad Prism software).

A value given as a limit tells only on which side of the number the result lay.

Chain of hOGG1 (O15527 12-323): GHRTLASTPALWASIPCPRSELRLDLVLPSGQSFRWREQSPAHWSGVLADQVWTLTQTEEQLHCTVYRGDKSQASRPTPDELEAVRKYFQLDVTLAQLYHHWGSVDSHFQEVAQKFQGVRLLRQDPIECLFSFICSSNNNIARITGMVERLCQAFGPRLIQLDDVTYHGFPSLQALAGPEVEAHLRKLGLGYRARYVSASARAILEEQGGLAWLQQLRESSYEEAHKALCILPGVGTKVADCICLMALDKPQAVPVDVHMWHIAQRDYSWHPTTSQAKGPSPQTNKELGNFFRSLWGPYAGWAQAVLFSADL

On to `COc1cc(NC(=O)[C@H]2CC[C@@H](N3Cc4c(C)cccc4C3=O)CC2)ccc1C(F)(F)F` [Example 258, (1s,4s)-N-(3-Methoxy-4-(trifluoromethyl)phenyl)-4-(4-methyl-1-oxoisoindolin-2-yl)cyclohexanecarboxamide], for which the IC50 was 100 to 1000 nM.

Turning to `COc1cc(NC(=O)[C@H]2CC[C@@H](N3Cc4c(N)cccc4C3=O)CC2)ccc1C` [Example 154, (1s,4s)-4-(4-Amino-1-oxoisoindolin-2-yl)-N-(3-methoxy-4-methylphenyl)cyclohexanecarboxamide], the IC50 lay in the range of 1000 to 10000 nM.

Consider `COc1cc(NC(=O)[C@H]2CC[C@@H](N3Cc4c(C)cc(O)cc4C3=O)CC2)ccc1C` [Example 206, (1s,4s)-4-(6-Hydroxy-4-methyl-1-oxoisoindolin-2-yl)-N-(3-methoxy-4-methylphenyl)cyclohexanecarboxamide], for which the IC50 is < 100 nM.

`COc1cc(NC(=O)[C@H]2CC[C@@H](N3Cc4c(OC)cccc4C3=O)CC2)ccc1C` [Example 161, (1s,4s)-4-(4-Methoxy-1-oxoisoindolin-2-yl)-N-(3-methoxy-4-methylphenyl)cyclohexanecarboxamide]: the IC50 is 1000 to 10000 nM.

In the case of `COc1ccc(NC(=O)[C@H]2CC[C@@H](N3Cc4c(C)cccc4NC3=O)CC2)cc1Cl` [Example 88, (1s,4s)-N-(3-chloro-4-methoxyphenyl)-4-(5-methyl-2-oxo-1,2-dihydroquinazolin-3(4H)-yl)cyclohexanecarboxamide], the IC50 is < 100 nM.

For the compound `COc1cc(NC(=O)[C@H]2CC[C@@H](N3Cc4c(C)cc(NCC5CCCN5)cc4C3=O)CC2)ccc1C` (some centres unmarked) [Example 194, (1s,4s)-N-(3-methoxy-4-methylphenyl)-4-(4-methyl-1-oxo-6-(pyrrolidin-2-ylmethylamino)isoindolin-2-yl)cyclohexanecarboxamide], the IC50 is < 100 nM.

As for `C=Cc1cccc2c1CN([C@H]1CC[C@@H](C(=O)Nc3ccc(C)c(OC)c3)CC1)C2=O` [Example 155, (1s,4s)-N-(3-Methoxy-4-methylphenyl)-4-(1-oxo-4-vinylisoindolin-2-yl)cyclohexanecarboxamide], the IC50 fell in the range of 100 to 1000 nM.

With `O=C1c2cccc(Br)c2CN1[C@H]1CC[C@@H](C(=O)Nc2ccc3c(c2)OC(F)(F)O3)CC1` [Example 186, (1s,4s)-4-(4-Bromo-1-oxoisoindolin-2-yl)-N-(2,2-difluorobenzo[d][1,3]dioxol-5-yl)cyclohexanecarboxamide], the IC50 was > 10000 nM.

As for `COc1cc(NC(=O)[C@H]2CC[C@@H](N3Cc4c(C)cccc4C3=O)CC2)ccc1C1CC1` [Example 121, (1s,4s)-N-(4-Cyclopropyl-3-methoxyphenyl)-4-(4-methyl-1-oxoisoindolin-2-yl)cyclohexane-1-carboxamide], the IC50 is 1000 to 10000 nM.

For the compound `COc1cc(NC(=O)[C@H]2CC[C@@H](N3Cc4c(C)ccc(N5CC(OC)C5)c4NC3=O)CC2)ccc1C` [Example 38, (1s,4s)-N-(3-Methoxy-4-methylphenyl)-4-(8-(3-methoxyazetidin-1-yl)-5-methyl-2-oxo-1,2-dihydroquinazolin-3(4H)-yl)cyclohexanecarboxamide], the IC50 was < 100 nM.

Regarding `COc1cc(NC(=O)[C@H]2CC[C@@H](n3[nH]c4c(C)cc(F)cc4c3=O)CC2)ccc1C` [Example 119, (1s,4s)-4-(5-Fluoro-7-methyl-3-oxo-1,3-dihydro-2H-indazol-2-yl)-N-(3-methoxy-4-methylphenyl)cyclohexane-1-carboxamide], the IC50 lay within 100 to 1000 nM.

Consider `Cc1cccc2c1CN([C@H]1CC[C@@H](C(=O)Nc3ccc(=O)n(C)c3)CC1)C2=O` [Example 246, (1s,4s)-4-(4-Methyl-1-oxoisoindolin-2-yl)-N-(1-methyl-6-oxo-1,6-dihydropyridin-3-yl)cyclohexanecarboxamide], for which the IC50 was > 10000 nM.

Turning to `Cc1ccc(NC(=O)[C@H]2CC[C@@H](N3Cc4c(C)cccc4C3=O)CC2)cc1C` [Example 236, (1s,4s)-N-(3,4-Dimethylphenyl)-4-(4-methyl-1-oxoisoindolin-2-yl)cyclohexanecarboxamide], the IC50 lay within 1000 to 10000 nM.

Turning to `Cc1ccc(NC(=O)[C@H]2CC[C@@H](N3Cc4c(C)cccc4C3=O)CC2)cc1C1COC1` [Example 125, (1s,4s)-4-(4-Methyl-1-oxoisoindolin-2-yl)-N-(4-methyl-3-(oxetan-3-yl)phenyl)cyclohexane-1-carboxamide], the IC50 is > 10000 nM.

In the case of `COc1cc(NC(=O)[C@H]2CC[C@@H](N3Cc4c(Br)cc(NC5CNC5)cc4C3=O)CC2)ccc1C` [Example 180, (1s,4s)-4-(6-(Azetidin-3-ylamino)-4-bromo-1-oxoisoindolin-2-yl)-N-(3-methoxy-4-methylphenyl)cyclohexanecarboxamide], the IC50 was < 100 nM.

As for `COc1cc(NC(=O)[C@H]2CC[C@@H](N3Cc4c(C)cccc4C3=O)CC2)ccc1CO` [Example 145, (1s,4s)-N-(4-(Hydroxymethyl)-3-methoxyphenyl)-4-(4-methyl-1-oxoisoindolin-2-yl)cyclohexanecarboxamide], the IC50 lay in the range of 1000 to 10000 nM.

Consider `Cc1cccc2c1CN([C@H]1CC[C@@H](C(=O)Nc3ccc4oncc4c3)CC1)C2=O` [Example 275, (1s,4s)-N-(benzo[d]isoxazol-5-yl)-4-(4-methyl-1-oxoisoindolin-2-yl)cyclohexanecarboxamide], for which the IC50 was in the range of 100 to 1000 nM.

As to `COc1cc(NC(=O)[C@H]2CC[C@@H](N3Cc4c(C)cc(CNS(C)(=O)=O)cc4NC3=O)CC2)ccc1C` [Example 26, (1s,4s)-N-(3-Methoxy-4-methylphenyl)-4-(5-methyl-7-(methylsulfonamidomethyl)-2-oxo-1,2-dihydroquinazolin-3(4H)-yl)cyclohexanecarboxamide], the IC50 was < 100 nM.

Consider `COc1cc(NC(=O)[C@H]2CC[C@@H](N3Cc4c(C)cc(NCC5CNC5)cc4C3=O)CC2)ccc1C` [Example 195, (1s,4s)-4-(6-(Azetidin-3-ylmethylamino)-4-methyl-1-oxoisoindolin-2-yl)-N-(3-methoxy-4-methylphenyl)cyclohexanecarboxamide], for which the IC50 is < 100 nM.

As for `COc1ccc(NC(=O)[C@]2(C)CC[C@@H](N3Cc4c(C)cccc4NC3=O)CC2)cc1C#N` (single isomer, unassigned) [Example 108, (1r,4r)-N-(3-cyano-4-methoxyphenyl)-1-methyl-4-(5-methyl-2-oxo-1,2-dihydroquinazolin-3(4H)-yl)cyclohexanecarboxamide], the IC50 is > 10000 nM.

With `COc1cc(NC(=O)[C@H]2CC[C@@H](N3Cc4c(ccc(OCCN(C)C)c4C)NC3=O)CC2)ccc1C` [Example 40, (1s,4s)-4-(6-(2-(Dimethylamino)ethoxy)-5-methyl-2-oxo-1,2-dihydroquinazolin-3(4H)-yl)-N-(3-methoxy-4-methylphenyl)cyclohexanecarboxamide], the IC50 lay within 1000 to 10000 nM.

In the case of `COc1cc(NC(=O)[C@H]2CC[C@@H](N3Cc4c(ccc(CN)c4C)NC3=O)CC2)ccc1C` [Example 57, (1s,4s)-4-(6-(Aminomethyl)-5-methyl-2-oxo-1,2-dihydroquinazolin-3(4H)-yl)-N-(3-methoxy-4-methylphenyl)cyclohexanecarboxamide], the IC50 lay within 1000 to 10000 nM.

Turning to `Cc1ccc(NC(=O)[C@H]2CC[C@@H](N3Cc4c(C)cccc4C3=O)CC2)cc1C#N` [Example 254, (1s,4s)-N-(3-Cyano-4-methylphenyl)-4-(4-methyl-1-oxoisoindolin-2-yl)cyclohexanecarboxamide], the IC50 lay within 100 to 1000 nM.

`CCOC(=O)c1cccc2c1CN([C@H]1CC[C@@H](C(=O)Nc3ccc(C)c(OC)c3)CC1)C2=O` [Example 169, Ethyl 2-((1s,4s)-4-(3-methoxy-4-methylphenylcarbamoyl)cyclohexyl)-1-oxoisoindoline-4-carboxylate]: the IC50 is > 10000 nM.

In the case of `COc1cc(NC(=O)[C@]2(C)CC[C@H](N3Cc4c(C)cccc4NC3=O)CC2)ccc1C` (single isomer, unassigned) [Example 101, (1s,4s)-N-(3-methoxy-4-methylphenyl)-1-methyl-4-(5-methyl-2-oxo-1,2-dihydroquinazolin-3(4H)-yl)cyclohexanecarboxamide], the IC50 is < 100 nM.

In the case of `COc1cccc(NC(=O)[C@H]2CC[C@@H](N3Cc4c(C)cccc4C3=O)CC2)n1` [Example 233, (1s,4s)-N-(6-Methoxypyridin-2-yl)-4-(4-methyl-1-oxoisoindolin-2-yl)cyclohexanecarboxamide], the IC50 was 1000 to 10000 nM.

Values taken from patent US20260317356A1, “SMALL MOLECULE MODULATORS OF OGG1” (AZKARRA THERAPEUTICS, INC., priority 2023, published 2026).
